Measurements: PMC5956890 (Journal of medicinal chemistry, 2017)
“Also recorded” adds a separate entry of the source.

Assays:
LXRα = target: T1, LXRα (Homo sapiens, UniProt Q13133); assay: TR-FRET LXRα coactivator assay; format: biochemical; settings: 4 µM, compared to positive control 20
T1 sequence (Q13133 1-447): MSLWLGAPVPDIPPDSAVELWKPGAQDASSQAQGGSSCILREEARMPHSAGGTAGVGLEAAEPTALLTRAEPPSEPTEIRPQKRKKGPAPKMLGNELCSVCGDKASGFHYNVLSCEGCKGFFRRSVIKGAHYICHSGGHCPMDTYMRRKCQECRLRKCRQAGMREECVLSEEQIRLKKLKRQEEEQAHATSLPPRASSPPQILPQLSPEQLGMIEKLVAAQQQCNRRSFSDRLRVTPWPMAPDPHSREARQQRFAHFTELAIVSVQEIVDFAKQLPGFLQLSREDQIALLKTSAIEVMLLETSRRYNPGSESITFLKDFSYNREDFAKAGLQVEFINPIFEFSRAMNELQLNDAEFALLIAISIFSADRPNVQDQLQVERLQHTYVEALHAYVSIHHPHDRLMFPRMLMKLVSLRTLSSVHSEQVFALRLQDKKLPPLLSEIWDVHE

[1] = test system: STZ-induced diabetic C57BL/6J mice; assay: STZ-induced diabetes mouse model; format: in vivo; settings: oral 20 mg/kg for 5 days, male C57BL/6J
PPARδ [2] = target: T2, PPARδ (Homo sapiens, UniProt Q03181); assay: TR-FRET PPARδ coactivator assay; format: biochemical; settings: compound alone
T2 sequence (Q03181 211-439 limits assumed): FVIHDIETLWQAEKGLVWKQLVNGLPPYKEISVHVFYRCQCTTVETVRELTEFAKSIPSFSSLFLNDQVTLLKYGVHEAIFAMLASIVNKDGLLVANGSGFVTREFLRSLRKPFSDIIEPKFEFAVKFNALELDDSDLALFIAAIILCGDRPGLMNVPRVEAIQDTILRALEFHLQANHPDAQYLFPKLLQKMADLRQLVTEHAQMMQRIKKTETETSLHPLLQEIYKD

GR = target: T3, GR (Homo sapiens, UniProt P04150); assay: TR-FRET competitive binding assay GR; settings: 4 µM, compared to dexamethasone
T3 sequence (P04150 1-777): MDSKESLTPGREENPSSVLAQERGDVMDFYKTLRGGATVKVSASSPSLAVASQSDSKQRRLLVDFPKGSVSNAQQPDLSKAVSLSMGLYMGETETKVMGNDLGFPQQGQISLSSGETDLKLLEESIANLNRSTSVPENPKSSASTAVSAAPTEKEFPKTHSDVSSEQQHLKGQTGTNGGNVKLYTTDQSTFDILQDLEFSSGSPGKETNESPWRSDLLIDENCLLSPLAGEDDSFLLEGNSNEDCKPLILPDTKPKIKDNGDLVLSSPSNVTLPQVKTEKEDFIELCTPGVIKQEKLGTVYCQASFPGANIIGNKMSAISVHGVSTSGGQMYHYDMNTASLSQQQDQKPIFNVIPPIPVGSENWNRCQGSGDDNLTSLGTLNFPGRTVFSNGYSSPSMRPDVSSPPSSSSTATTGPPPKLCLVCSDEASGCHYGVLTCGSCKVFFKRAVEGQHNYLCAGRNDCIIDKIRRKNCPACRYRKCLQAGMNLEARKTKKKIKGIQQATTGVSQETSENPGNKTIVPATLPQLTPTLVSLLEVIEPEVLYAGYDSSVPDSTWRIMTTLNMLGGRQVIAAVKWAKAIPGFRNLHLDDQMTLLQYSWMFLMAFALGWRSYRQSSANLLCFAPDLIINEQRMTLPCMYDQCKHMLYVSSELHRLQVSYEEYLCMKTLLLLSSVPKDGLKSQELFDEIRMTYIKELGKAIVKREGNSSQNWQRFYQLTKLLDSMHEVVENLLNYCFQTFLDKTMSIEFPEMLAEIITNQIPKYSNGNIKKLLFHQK

hBM-MSCs [3] = assay: Oil Red O staining of lipid droplets in hBM-MSCs; format: cell-based, human; settings: compared with IDX control, 7th day
CDK5/p35 = CDK5/p35 (Homo sapiens, UniProt Q00535); assay: KinaseProfiler kinase assay CDK5/p35; format: biochemical; settings: up to 20 µM, Km ATP
PPARα = target: T4, PPARα (Homo sapiens, UniProt Q07869); assay: TR-FRET competitive binding assay PPARα; settings: for effect on PPARα binding: 4 µM, compared to positive control 19; for replacement of labeled PPARα ligand binding: up to 20 µM
T4 sequence (Q07869 200-468 limits assumed): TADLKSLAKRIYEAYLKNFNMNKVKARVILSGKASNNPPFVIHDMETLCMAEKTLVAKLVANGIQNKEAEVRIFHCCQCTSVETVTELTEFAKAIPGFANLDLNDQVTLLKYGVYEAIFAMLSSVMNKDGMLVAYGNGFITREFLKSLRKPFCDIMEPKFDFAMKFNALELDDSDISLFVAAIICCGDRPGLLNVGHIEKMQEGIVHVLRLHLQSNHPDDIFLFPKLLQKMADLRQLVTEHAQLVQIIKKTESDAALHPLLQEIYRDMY

hBM-MSCs [4] = assay: adiponectin production during adipogenesis in hBM-MSCs; settings: for adiponectin production during adipogenesis: compared to IDX control
LXRβ = target: T5, LXRβ (Homo sapiens, UniProt P55055); assay: TR-FRET LXRβ coactivator assay; format: biochemical; settings: 4 µM, compared to positive control 20
T5 sequence (P55055 1-460): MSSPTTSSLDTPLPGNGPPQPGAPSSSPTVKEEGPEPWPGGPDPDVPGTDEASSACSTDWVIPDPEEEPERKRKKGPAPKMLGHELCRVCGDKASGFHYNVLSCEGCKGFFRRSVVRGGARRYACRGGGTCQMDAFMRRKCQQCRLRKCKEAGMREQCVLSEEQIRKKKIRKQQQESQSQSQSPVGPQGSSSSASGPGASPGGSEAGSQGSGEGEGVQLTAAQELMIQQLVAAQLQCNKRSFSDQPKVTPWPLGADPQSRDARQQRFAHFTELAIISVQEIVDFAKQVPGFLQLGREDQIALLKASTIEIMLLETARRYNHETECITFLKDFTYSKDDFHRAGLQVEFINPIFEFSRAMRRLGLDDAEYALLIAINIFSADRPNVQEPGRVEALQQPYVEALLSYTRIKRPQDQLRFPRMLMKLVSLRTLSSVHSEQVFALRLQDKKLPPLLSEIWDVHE

CDK5/p25 = CDK5/p25 (Homo sapiens, UniProt Q00535); assay: KinaseProfiler kinase assay CDK5/p25; format: biochemical; settings: up to 20 µM, Km ATP
hA2AAR = settings: cited from earlier work
hA1AR = settings: cited from earlier work
PPARδ [5] = target: T6, PPARδ (Homo sapiens, UniProt Q03181); assay: TR-FRET competitive binding assay PPARδ; settings: concentration-response
T6 sequence (Q03181 1-441): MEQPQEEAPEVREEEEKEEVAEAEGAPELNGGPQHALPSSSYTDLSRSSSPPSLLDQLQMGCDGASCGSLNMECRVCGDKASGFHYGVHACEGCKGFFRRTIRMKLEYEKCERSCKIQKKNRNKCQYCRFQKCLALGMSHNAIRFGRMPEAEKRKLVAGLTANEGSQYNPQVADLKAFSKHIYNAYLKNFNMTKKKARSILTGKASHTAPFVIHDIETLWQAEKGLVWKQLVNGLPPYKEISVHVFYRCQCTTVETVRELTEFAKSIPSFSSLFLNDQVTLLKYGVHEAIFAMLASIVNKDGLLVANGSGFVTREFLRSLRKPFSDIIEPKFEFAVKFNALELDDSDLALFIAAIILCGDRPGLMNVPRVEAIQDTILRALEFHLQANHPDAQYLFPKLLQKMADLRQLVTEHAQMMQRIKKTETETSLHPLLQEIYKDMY

[6] = test system: human AR-transfected murine osteoblast precursor cell line 7F2; settings: cited from earlier work
PPARγ = target: T7, PPARγ (Homo sapiens, UniProt P37231); assay: TR-FRET competitive binding assay PPARγ; settings: concentration-response
T7 sequence (P37231 235-505 limits assumed): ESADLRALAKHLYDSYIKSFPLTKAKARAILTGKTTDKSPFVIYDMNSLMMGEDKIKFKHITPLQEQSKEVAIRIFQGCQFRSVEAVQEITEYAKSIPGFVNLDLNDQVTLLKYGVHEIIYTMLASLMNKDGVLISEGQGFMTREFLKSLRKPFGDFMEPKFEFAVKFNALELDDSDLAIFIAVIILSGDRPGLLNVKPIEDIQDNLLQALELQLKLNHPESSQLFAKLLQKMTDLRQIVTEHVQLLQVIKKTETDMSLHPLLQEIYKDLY

Sequence of CDK5/p25 (Q00535 whole entry): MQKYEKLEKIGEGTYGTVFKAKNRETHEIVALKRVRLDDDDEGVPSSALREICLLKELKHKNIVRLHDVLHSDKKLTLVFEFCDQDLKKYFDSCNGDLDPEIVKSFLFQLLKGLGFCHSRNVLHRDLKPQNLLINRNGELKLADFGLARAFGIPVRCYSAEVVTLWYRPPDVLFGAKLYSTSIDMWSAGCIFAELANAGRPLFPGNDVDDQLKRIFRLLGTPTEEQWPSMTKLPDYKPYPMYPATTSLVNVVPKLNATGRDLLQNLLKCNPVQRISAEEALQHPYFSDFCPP
Sequence of CDK5/p25 (Q15078 99-307 partner limits assumed): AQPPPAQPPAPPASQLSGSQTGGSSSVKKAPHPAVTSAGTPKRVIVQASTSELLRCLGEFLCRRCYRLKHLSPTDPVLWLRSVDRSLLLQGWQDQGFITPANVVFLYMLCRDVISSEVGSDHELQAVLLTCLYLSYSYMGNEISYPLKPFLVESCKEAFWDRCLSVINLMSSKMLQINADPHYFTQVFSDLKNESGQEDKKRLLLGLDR
Sequence of CDK5/p35 (Q00535 whole entry): as the sequence (Q00535 whole entry) above
Sequence of CDK5/p35 (Q15078 2-307 partner limits assumed): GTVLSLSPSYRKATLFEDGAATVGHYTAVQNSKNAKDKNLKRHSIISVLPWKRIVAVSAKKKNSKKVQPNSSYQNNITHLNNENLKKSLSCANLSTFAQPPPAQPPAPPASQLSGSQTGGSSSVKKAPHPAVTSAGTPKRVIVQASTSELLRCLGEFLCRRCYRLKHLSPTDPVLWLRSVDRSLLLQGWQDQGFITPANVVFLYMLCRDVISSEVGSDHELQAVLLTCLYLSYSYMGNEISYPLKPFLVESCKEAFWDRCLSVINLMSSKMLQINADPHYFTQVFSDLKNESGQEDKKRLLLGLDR

Structure (SMILES)	effect on LXRα coactivation (LXRα)	effect on GR binding (GR)	effect on CDK5/p35 kinase activity (CDK5/p35)	effect on PPARα binding (PPARα)	replacement of labeled PPARα ligand binding (PPARα) [%]	adiponectin production during adipogenesis (hBM-MSCs [4])	effect on LXRβ coactivation (LXRβ)	effect on CDK5/p25 kinase activity (CDK5/p25)	% displacement at 1 µM (hA1AR) (hA1AR) [%]	other results
CNC(=O)[C@H]1O[C@@H](n2cnc3c(NCc4cccc(I)c4)ncnc32)[C@H](O)[C@@H]1O [Compound 1a, N^6-(3-iodobenzyl)adenosine-5′-N-methyluronamide]	no significant effects	no significant effects	Neither 1a nor 1b affected CDK activity	no significant effects	≤ 50	significantly promoted adiponectin production; also recorded: upregulated adiponectin production during adipogenesis in hBM-MSCs in a concentration-dependent manner	no significant effects	Neither 1a nor 1b affected CDK activity		serum triglyceride levels [1]: downregulated serum triglyceride levels; serum glucose levels ([1]; 20 mg/kg): tended to decrease serum glucose levels; recruitment of labeled coactivator peptide to PPARδ (PPARδ [2]): no effect on the recruitment of the labeled coactivator peptide; lipid droplets in differentiated adipocytes (ORO staining) (hBM-MSCs [3]): increased the number and size of lipid droplets
O=C(NC1CC1)[C@H]1S[C@@H](n2cnc3c(NCc4cccc(I)c4)ncnc32)[C@H](O)[C@@H]1O [Compound 2b, (2S,3S,4R,5R)-N-Cyclopropyl-3,4-dihydroxy-5-(6-((3-iodobenzyl)amino)-9H-purin-9-yl)tetrahydrothiophene-2-carboxamide]										Ki (hA2AAR; read-out: Ki (hA2AAR)): 15.2 ± 2.6 nM
O[C@@H]1[C@H](O)CS[C@H]1n1cnc2c(NCc3ccccc3Cl)nc(Cl)nc21 [Compound 3c, (2R,3R,4S)-2-(2-Chloro-6-((2-chlorobenzyl)amino)-9H-purin-9-yl)tetrahydrothiophene-3,4-diol]									13	
O[C@@H]1[C@H](O)CS[C@H]1n1cnc2c(NCc3cccc(Cl)c3)nc(Cl)nc21 [Compound 3b, (2R,3R,4S)-2-(2-Chloro-6-((3-chlorobenzyl)amino)-9H-purin-9-yl)tetrahydrothiophene-3,4-diol]									38	PPARδ binding activity (PPARδ [5]): maximal PPARδ binding activity; % displacement at 1 µM (hA2AAR) (hA2AAR; 1 µM): 18%
CCNC(=O)[C@H]1O[C@@H](n2cnc3c(N)ncnc32)[C@H](O)[C@@H]1O [Compound 15, 5′-(N-ethylcarboxamido) adenosine]						no significant effect				increase of adipocyte differentiation [6]: 20–30%; adipogenesis in hBM-MSCs (hBM-MSCs [4]; compared to control): did not significantly promote adipogenesis
CNC(=O)[C@H]1O[C@@H](n2cnc3c(NCc4cccc(I)c4)nc(Cl)nc32)[C@H](O)[C@@H]1O [Compound 1b]	no significant effects	no significant effects	Neither 1a nor 1b affected CDK activity	no significant effects	≤ 50		no significant effects	Neither 1a nor 1b affected CDK activity		PPARγ binding activity (PPARγ): significant competitive binding activity
